This note sets out measurements from paper PMC11647725, “Discovery of 4-(5-Membered)Heteroarylether-6-methylpicolinamide Negative Allosteric Modulators of Metabotropic Glutamate Receptor Subtype 5” (ACS Medicinal Chemistry Letters, 2024).

The structures appear in SMILES notation. Bounds are passed on as bounds.

One data set deals with T1, human mGlu5 (Homo sapiens, UniProt P41594).
T1 construct: expressed in transfected cells
The experiment in a line: Calcium mobilization assay in human mGlu5-HEK293A cells (NAM, EC80 glutamate). The format is cell-based.

For a further data set, the target named is T2, human mGlu2 (Homo sapiens, UniProt Q14416).
T2 construct: expressed in transfected cells
The experiment in a line: mGlu selectivity, thallium flux GIRK assay. The format is cell-based. The procedure:
(§1) the presence of 5% CO2, the dye solutions were removed and replaced with assay buffer using a microplate washer, leaving 20 μL of assay buffer in the cell plate. The compound, agonist, and cell plates were placed inside the Functional Drug Screening System (FDSS 7000 or uCell, Hamamatsu, Japan) to measure the calcium flux. Assays were run at 37 °C. A triple add protocol was used to measure Ca kinetics. Briefly, after establishment of a fluorescence baseline for 2 seconds (excitation, 480 nm; emission, 530 nm), 20 µL of test compound was added to the cells and the response was measured for 140 seconds. This was followed by the addition of 10 µL (5X) of an EC20 concentration of Glu agonist, and the response of the cells was measured for 125 seconds. A third addition occurred by adding 12 uL (5X) of an EC80 concentration of Glu agonist and the response of the cells was measured for 90 seconds. […] Calcium fluorescence was recorded as fold over basal fluorescence and raw data were normalized to the maximal response to Glu agonist (ECMax). Compound-evoked decreases in calcium response in the presence of Glu EC80 agonist were determined as inhibition activity, and potency (IC50) and maximum inhibition responses (% GluMin) of compounds were determined using a four-parameter logistical equation using GraphPad Prism (La Jolla, CA) or the Dotmatics software platform (Woburn, MA) : […]
(§2) The mGlu subtype selectivity of compounds was determined using calcium mobilization or thallium flux GIRK (G protein-regulated inwardly rectifying K channel) assays using the stable cell lines expressing the respective mGlu receptors. […]
(§3) at RT using DL-AP4 for the agonist. mGlu8 cells were incubated with dye solution for 50 min at 37 °C in the presence of […] and FDSS assays were run at RT. To measure activity at mGlu2 and mGlu3, HEK293-GIRK cells stably expressing human mGlu2 and mGlu3 were assessed using thallium flux assay through GIRK channels as previously described in detail.3 […]

The target of a further data set is T3, human mGlu3 (Homo sapiens, UniProt Q14832).
T3 construct: expressed in transfected cells
The experiment in a line: mGlu selectivity, thallium flux GIRK assay. The format is cell-based. The method, then: as §1, §2, §3

Data set [1] is described as follows: In vivo rat pharmacokinetics. On the set-up: species or system Sprague–Dawley rat.
The next data set deals with Adenosine A3 (Homo sapiens, UniProt P0DMS8). Description: Lead Profiling Screen, Eurofins Panlabs. The format is binding. Particulars: Adenosine A3, hum, read-out: % inh at 10 μM. The source says:
(§4) Nonetheless, as a non-aryl/heterobiaryl acetylene mGlu5 NAM with an encouraging in vivo rodent PK profile, we wished to further assess VU6043653 as a novel chemotype. Therefore, we compared metabolites in multiple species to better understand species differences in clearance and metabolism. […] Consistent with the high plasma clearance observed in dogs, high turnover was observed more so in dog hepatocytes than any other species tested (see the Supporting Information for additional details and results). To further evaluate our novel chemotype, the off-target and safety/toxicity profiles for this compound were further investigated.
(§5) Table S2. Lead Profiling Screen – Eurofins Panlabs for VU6043653.
(§6) Assay Name Species % inh at 10 μM
(§7) Androgen (Testosterone) hum 75
(§8) Calcium Channel L-Type, Benzothiazepine rat 22
(§9) Calcium Channel L-Type, Dihydropyridine rat 1
(§10) Calcium Channel N-Type rat -8
(§11) Epidermal Growth Factor (EGF) hum -3
(§12) GABAA, Flunitrazepam, Central rat 0
(§13) GABAA, Muscimol, Central rat -5
(§14) Glutamate, Kainate rat -7
(§15) Glutamate, NMDA, Agonism rat 3
(§16) Glutamate, NMDA, Glycine rat -18
(§17) Glutamate, NMDA, Phencyclidine rat -4
(§18) Imidazoline I2, Central rat -1

Another data set deals with Androgen (Testosterone) (Homo sapiens, UniProt P10275). Description: Lead Profiling Screen, Eurofins Panlabs. The format is binding. Particulars: hum, read-out: % inh at 10 μM.
Description: as §4, §5, §6, §7, §8, §9, §10, §11, §12, §13, §14, §15, §16, §17, §18

In the next data set the target is Interleukin IL-1 R1 (Homo sapiens, UniProt P14778). Description: Lead Profiling Screen, Eurofins Panlabs. The format is binding. Particulars: Interleukin IL-1 R1, hum, read-out: % inh at 10 μM.
For a further data set, the target named is Muscarinic M1 (Homo sapiens, UniProt P11229). The experiment in a line: Lead Profiling Screen, Eurofins Panlabs. Particulars: Muscarinic M1, hum, read-out: % inh at 10 μM. It is filed as binding.
For another data set, the system named is Rolipram. The experiment in a line: Lead Profiling Screen, Eurofins Panlabs. It is filed as binding. The conditions noted are these: rat.

T1 sequence (P41594 21-1212): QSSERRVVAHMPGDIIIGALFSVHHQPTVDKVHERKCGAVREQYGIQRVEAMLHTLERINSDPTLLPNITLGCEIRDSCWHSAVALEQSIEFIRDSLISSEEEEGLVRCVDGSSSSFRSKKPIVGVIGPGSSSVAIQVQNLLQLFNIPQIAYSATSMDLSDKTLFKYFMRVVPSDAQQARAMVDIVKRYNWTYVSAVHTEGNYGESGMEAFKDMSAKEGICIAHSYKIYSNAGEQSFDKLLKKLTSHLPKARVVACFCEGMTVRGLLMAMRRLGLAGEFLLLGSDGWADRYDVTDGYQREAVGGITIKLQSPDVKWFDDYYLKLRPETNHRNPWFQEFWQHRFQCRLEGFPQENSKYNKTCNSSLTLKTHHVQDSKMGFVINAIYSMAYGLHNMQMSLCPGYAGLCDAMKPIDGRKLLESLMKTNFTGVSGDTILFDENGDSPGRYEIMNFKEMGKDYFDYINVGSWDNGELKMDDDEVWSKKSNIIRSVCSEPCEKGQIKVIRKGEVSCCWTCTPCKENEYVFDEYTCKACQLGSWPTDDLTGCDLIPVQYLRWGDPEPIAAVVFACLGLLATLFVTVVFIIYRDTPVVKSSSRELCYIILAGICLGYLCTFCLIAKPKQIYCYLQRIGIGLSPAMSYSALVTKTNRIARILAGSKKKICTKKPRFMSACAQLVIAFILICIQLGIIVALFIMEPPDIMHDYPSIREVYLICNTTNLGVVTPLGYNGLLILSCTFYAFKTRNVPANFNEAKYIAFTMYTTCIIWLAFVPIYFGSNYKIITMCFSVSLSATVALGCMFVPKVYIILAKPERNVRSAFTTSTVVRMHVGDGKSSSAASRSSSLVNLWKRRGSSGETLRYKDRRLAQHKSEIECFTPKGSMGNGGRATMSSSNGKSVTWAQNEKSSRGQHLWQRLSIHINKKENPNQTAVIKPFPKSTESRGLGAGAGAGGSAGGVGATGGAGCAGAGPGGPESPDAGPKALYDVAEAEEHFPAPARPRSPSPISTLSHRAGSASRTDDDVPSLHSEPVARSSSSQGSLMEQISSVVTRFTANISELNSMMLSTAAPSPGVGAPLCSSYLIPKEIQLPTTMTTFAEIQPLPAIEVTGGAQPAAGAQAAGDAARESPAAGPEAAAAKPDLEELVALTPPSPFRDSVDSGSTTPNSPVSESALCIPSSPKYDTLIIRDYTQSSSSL
T3 sequence (Q14832 23-879): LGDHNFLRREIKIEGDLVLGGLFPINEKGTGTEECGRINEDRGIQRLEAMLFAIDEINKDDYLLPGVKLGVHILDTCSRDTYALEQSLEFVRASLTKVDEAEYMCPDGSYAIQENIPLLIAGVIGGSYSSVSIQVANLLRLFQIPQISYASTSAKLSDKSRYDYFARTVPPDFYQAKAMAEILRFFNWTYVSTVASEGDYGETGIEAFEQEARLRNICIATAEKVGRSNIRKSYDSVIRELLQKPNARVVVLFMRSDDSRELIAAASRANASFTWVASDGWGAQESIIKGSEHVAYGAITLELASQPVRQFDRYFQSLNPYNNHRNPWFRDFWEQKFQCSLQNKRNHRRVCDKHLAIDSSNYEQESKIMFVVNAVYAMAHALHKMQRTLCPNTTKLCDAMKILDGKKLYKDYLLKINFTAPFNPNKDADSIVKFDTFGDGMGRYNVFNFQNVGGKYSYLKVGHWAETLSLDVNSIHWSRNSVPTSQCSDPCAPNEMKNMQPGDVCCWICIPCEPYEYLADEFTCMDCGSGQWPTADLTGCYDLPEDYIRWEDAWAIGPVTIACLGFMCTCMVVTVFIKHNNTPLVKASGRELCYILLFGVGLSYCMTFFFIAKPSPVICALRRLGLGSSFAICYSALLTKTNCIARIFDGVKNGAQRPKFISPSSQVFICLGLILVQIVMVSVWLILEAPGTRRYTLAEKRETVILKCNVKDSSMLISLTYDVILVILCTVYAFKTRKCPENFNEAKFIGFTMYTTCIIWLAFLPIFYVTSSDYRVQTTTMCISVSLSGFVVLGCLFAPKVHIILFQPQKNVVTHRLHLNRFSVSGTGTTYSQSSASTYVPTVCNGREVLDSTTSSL
Sequence of Interleukin IL-1 R1 (P14778 18-569): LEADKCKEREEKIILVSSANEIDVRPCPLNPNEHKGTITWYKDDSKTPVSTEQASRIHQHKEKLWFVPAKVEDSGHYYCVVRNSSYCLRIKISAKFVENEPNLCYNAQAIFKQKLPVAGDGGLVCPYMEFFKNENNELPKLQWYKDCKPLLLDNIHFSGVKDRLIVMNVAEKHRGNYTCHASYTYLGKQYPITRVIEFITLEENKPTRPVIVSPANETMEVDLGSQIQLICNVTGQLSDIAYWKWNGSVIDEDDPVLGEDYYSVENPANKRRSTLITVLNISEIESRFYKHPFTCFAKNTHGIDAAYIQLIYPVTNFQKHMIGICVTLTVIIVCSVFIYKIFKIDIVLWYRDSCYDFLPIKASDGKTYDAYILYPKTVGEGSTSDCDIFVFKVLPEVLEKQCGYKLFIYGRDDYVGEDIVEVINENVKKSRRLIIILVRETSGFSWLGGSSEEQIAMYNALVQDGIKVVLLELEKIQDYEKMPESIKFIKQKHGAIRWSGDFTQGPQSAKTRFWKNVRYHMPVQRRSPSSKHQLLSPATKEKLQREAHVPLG
Sequence of Androgen (Testosterone) (P10275 whole entry): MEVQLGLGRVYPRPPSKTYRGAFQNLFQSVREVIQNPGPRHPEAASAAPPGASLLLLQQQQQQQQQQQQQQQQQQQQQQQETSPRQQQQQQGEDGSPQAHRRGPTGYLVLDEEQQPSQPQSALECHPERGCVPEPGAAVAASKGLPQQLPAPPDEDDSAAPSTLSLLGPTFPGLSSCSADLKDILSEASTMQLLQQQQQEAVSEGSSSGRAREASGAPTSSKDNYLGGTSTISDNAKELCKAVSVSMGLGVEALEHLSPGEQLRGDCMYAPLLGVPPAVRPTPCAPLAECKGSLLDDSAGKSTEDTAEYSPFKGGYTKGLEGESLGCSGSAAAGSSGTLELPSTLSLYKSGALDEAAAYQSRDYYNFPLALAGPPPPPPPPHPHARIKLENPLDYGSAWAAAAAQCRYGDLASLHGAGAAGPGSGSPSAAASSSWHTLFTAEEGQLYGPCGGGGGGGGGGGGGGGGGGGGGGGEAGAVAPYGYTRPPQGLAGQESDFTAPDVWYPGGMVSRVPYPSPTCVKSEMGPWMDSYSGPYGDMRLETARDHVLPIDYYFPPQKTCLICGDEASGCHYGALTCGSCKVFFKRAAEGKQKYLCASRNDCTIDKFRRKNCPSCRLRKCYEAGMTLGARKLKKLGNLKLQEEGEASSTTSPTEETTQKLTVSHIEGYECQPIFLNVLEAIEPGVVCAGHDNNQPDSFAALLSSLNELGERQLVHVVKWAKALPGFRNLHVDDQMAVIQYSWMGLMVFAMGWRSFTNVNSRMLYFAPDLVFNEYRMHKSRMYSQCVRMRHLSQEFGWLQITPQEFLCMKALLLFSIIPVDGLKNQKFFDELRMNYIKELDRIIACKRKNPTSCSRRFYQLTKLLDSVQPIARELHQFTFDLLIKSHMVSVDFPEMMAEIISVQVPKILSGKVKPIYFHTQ
Sequence of Muscarinic M1 (P11229 whole entry): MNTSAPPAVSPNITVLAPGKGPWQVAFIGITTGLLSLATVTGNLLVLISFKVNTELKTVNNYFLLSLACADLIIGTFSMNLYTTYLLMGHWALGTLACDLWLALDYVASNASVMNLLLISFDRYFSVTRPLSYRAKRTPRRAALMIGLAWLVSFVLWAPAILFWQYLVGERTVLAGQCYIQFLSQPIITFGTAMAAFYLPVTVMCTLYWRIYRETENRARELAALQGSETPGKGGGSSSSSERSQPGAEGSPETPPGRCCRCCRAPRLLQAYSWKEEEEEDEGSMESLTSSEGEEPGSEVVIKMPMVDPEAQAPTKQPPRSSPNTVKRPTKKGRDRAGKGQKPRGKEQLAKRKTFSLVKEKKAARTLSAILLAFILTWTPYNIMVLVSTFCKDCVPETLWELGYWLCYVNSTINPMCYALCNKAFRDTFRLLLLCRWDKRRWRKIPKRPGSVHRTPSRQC
T2 sequence (Q14416 19-872): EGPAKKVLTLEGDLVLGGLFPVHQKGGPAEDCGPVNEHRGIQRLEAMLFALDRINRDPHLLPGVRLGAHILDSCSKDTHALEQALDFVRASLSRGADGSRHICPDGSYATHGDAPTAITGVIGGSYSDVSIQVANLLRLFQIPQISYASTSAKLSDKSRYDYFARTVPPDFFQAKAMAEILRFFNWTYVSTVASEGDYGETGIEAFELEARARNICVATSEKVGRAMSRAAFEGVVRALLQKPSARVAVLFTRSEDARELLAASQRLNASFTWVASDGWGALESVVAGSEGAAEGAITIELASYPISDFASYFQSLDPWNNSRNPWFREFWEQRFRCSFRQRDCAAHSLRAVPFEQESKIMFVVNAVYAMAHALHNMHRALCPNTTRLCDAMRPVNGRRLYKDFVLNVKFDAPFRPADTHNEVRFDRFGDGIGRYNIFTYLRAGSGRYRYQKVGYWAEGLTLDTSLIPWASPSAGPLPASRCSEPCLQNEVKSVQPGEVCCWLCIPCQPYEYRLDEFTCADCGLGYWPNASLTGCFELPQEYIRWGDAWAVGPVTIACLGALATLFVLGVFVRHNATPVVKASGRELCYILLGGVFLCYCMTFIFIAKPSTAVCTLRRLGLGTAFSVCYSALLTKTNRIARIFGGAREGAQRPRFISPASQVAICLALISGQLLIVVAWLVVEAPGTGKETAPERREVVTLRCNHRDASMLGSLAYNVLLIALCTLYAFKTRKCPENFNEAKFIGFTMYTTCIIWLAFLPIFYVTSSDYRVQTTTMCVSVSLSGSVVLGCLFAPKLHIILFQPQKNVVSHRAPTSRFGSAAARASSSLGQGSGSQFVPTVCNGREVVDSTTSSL

Usually pIC50 stands for the IC50 on a negative log10 scale, so that one unit is a factor of ten. Usually IC50 stands for the concentration at which inhibition is half-maximal. Broadly, the MRT is the average time that molecules of a dose stay in the body. Broadly, the Vss is the apparent volume that relates the amount in the body to the concentration in plasma or blood. Usually Cmax stands for the highest concentration seen after dosing. As usually defined, the Tmax is the time at which the peak concentration occurs. Usually bioavailability stands for dose-corrected exposure relative to a reference, in per cent. Take `Cc1cc(Oc2cnn(C)c2)cc(C(=O)Nc2ccc(F)cn2)n1` [22iA]: the “fold increase in hmGlu5 potency” value at human mGlu5 (22fC vs 22bC, 22gA vs 22iA, 22iA vs 22hA, 22iB vs 22hB) is 1.6 fold. Further, the “% GluMin” value at human mGlu5 (efficacy of the NAM to reduce an EC80 response of glutamate, human mGlu5-HEK293A cells) is 2%. The negative-log IC50 (pIC50) at human mGlu5 (human mGlu5-HEK293A cells, EC80 fixed concentration of glutamate, n = 2 in triplicate) is 6.49. At human mGlu5 (human mGlu5-HEK293A cells, EC80 fixed concentration of glutamate, read-out: hmGlu5 IC50), the IC50 came to 0.325 µM. Also, the “IC50, human mGlu2” value at human mGlu2 is “inactive”. Besides, at human mGlu3, the “%GluMin, human mGlu3” value was “[58] %” and the half-inhibitory concentration (IC50) is over 10 µM. In data set [1] (Rat (SD), IV 1.0 mg/kg), this compound showed a CLp of 41 mL/min/kg, an MRT of 50.4 min, a Vss of 2.0 L/kg and a t1/2 of 44.4 min. In data set [1] (Rat (SD), PO 10.0 mg/kg), the “AUC0-∞” value is 1320 ng·h/mL, the Cmax was found to be 402 ng/mL and the time to peak (Tmax) came out at 117 min. Also, the “%F” value in data set [1] (Rat (SD), PO 10.0 mg/kg, oral bioavailability) worked out at 43%. In addition, the half-life in [1] (Sprague-Dawley, rat, plasma, intravenous, 1 mg/kg, rats, value as given in running text, read-out: elimination t1/2) was about 45 min. Further, the bioavailability in data set [1] (Sprague-Dawley, rat, plasma, po, 10 mg/kg) worked out at 40%. In addition, on Adenosine A3, the inhibition at 10 µM is at least 70%. The inhibition at 10 µM on Androgen (Testosterone) is at least 70%. Also, the inhibition at 10 µM at Interleukin IL-1 R1 was -7%. Besides, the inhibition at 10 µM at Muscarinic M1 was -13%. Besides, the “% inh at 10 μM” value with Rolipram is given as -2%.
